Experimental data published in patent publication US12448369B2 (Edgewise Therapeutics, Inc., priority 2023, dated 2025).

What was measured:
[1] = test system: Rabbit Psoas myofibrils (skeletal myosin ATPase); assay: Myofibril ATPase assay, rabbit psoas (skeletal) myofibrils; assay type: biochemical
In short: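 Readout: A340 decline from NADH oxidation, PK/LDH-coupled to ADP release; kinetic reads over 75 min. Buffer: pCa (PIPES, CaCl2, EGTA), pH 7.0. Linear-regression slopes vs vehicle, 4PL fit; reported as concentration giving 75% (Y75) or 125% (Y125) of vehicle activity.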

[2] = test system: Porcine atria myofibrils (atrial myosin ATPase); assay: Myofibril ATPase assay, porcine atria myofibrils; assay type: biochemical
In short: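 Coupled PK-LDH readout, NADH loss at 340 nm, kinetic 75 min. Porcine atria myofibrils, pCa buffer (PIPES/CaCl2/EGTA, pH 7.0). Slopes (mAU/min) normalized to vehicle = 100%, 4-parameter fit; Y75 or Y125 reported.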

[3] = biological target: T1, Porcine ventricle myofibrils (ventricular myosin ATPase) (Sus scrofa, UniProt P79293); assay: Myofibril ATPase assay, porcine ventricle myofibrils; assay type: biochemical, porcine (Yucatan minipigs)
T1 construct: Myofibrils from porcine cardiac muscle was isolated from the left ventricle of Yucatan minipigs; tissue Exemplar Genetics; host or cells: left ventricle of Yucatan minipigs, myofibrils prepared in house
T1 sequence (P79293 whole entry): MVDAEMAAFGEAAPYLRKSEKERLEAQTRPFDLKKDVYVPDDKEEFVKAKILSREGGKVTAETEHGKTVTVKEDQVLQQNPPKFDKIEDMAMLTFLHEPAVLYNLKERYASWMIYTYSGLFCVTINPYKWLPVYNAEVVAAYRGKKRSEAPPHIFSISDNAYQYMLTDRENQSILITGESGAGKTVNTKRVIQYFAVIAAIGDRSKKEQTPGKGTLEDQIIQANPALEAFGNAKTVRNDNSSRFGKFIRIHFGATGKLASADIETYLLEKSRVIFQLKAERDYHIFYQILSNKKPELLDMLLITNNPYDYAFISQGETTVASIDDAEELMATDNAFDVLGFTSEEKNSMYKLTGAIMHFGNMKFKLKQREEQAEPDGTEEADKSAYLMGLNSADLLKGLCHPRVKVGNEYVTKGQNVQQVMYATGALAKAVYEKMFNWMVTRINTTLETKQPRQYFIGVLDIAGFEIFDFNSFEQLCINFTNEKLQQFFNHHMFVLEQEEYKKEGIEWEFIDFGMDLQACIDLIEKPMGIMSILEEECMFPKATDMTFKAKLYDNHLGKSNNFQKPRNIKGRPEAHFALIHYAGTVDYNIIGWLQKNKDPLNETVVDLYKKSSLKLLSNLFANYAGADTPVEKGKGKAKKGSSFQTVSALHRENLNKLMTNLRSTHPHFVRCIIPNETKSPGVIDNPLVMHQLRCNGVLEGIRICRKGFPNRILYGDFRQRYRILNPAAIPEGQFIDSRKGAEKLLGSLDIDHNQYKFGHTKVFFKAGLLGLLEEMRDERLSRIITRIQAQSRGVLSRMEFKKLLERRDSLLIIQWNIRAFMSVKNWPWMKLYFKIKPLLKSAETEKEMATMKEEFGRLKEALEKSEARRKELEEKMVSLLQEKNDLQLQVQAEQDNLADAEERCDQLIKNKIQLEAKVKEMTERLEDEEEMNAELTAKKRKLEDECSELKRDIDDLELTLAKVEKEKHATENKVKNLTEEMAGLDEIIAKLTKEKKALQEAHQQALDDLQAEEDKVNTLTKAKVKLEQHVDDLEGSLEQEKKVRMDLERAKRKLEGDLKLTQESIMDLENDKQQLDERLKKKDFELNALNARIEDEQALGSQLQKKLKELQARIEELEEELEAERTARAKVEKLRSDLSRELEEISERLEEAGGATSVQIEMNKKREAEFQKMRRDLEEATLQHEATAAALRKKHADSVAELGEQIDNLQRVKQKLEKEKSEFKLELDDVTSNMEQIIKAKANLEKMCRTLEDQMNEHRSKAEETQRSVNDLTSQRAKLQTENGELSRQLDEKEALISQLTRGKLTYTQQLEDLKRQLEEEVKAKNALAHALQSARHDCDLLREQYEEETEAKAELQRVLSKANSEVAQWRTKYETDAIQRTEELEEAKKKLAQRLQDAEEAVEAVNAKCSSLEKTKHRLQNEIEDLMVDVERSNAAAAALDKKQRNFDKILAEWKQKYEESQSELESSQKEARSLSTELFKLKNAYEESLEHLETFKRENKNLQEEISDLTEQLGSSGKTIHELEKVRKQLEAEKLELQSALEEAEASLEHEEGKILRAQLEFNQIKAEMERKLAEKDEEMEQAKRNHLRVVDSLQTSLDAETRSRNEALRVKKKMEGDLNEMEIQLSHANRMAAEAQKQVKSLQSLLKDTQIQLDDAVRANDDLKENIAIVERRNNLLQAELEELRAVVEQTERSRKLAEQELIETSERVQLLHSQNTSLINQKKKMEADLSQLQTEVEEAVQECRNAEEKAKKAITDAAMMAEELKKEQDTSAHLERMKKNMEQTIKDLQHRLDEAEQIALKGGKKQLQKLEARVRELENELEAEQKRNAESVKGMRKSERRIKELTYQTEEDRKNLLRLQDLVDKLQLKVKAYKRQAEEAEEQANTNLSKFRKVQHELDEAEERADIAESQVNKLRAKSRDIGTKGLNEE
In short: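 Myofibrils isolated from Yucatan minipig left ventricle; coupled PK/LDH NADH assay, pCa buffer pH 7.0, kinetic A340 reads over 75 min. Vehicle-normalized slopes fit 4PL; Y75/Y125 derived.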

[4] = Y75 value (no ‡ mark), rabbit psoas myofibrils
[5] = Y75 value (no ‡ mark), porcine atria myofibrils
[6] = Y75 value (no ‡ mark), porcine ventricle myofibrils
[7] = rabbit psoas myofibrils, Y75 value
[8] = porcine atria myofibrils, Y75 value (75% activity relative to no compound)
[9] = porcine ventricle myofibrils, Y75 value

SMILES | Skeletal EC25 [1, 4] [µM] | Atrial EC25 [2, 5] [µM] | Ventricular EC25 [3, 6] [µM] | Skeletal EC25 [1, 7] [µM] | Atrial EC25 [2, 8] [µM] | Ventricular EC25 [3, 9] [µM] | other results
Cc1c(CC(=O)N[C@H](C)c2ccc(C#N)cc2F)c(=O)[nH]c2ccc(F)c(C3CC3)c12 [compound 69] | 0.01 | 0.03 | 0.11 | – | – | – | –
C[C@H](NC(=O)Cc1c(C(F)(F)F)c2cnccc2[nH]c1=O)c1ccc(F)cc1F [compound 447] | – | – | – | 0.05 | 0.25 | 10.16 | –
Cc1nccc2[nH]c(=O)c(C(F)(F)C(=O)N[C@@H](C)c3ccc(C#N)cc3F)c(C)c12 (single isomer, unassigned) [compound 3508] | – | – | – | 0.07 | 0.22 | 0.29 | –
CCc1c(CC(=O)N[C@@H](C)c2ncc(C#N)cn2)c(=O)[nH]c2ccc(F)c(C)c12 (single isomer, unassigned) [compound 2002] | 0.11 | 0.29 | 0.21 | – | – | – | –
Cc1c(CC(=O)N[C@@H](C)c2ncc(C#N)cn2)c(=O)[nH]c2cccc(F)c12 (single isomer, unassigned) [compound 2042] | 2.39 | 0.55 | 2.11 | – | – | – | –
C[C@H](NC(=O)Cc1c(C(F)F)c2cnccc2[nH]c1=O)c1ccc(F)cc1F [compound 438] | – | – | – | 0.60 | 2.35 | 7.68 | –
C[C@@H](NC(=O)Cc1c(C2CC2)c2cc(F)ccc2[nH]c1=O)c1ncc(C#N)cc1F [compound 39] | 100.00 | 100.00 | 100.00 | – | – | – | –
C[C@H](NC(=O)[C@@H](C)c1cc2cc(F)ccc2[nH]c1=O)c1ccc(F)cc1F (single isomer, unassigned) [compound 2608] | 100.00 | 100.00 | – | – | – | – | Ventricular EC25 ([3]; ‡ Y125 value, not a Y75 value (125% activity relative to no compound), porcine ventricle myofibrils): 44.26‡ μM
Cc1nccc2[nH]c(=O)c(CC(=O)N[C@H]3CCc4cc(F)cc(F)c43)c(C)c12 [compound 501] | – | – | – | 3.4 | 76 | 78 | –
Cc1ccc2[nH]c(=O)c(CC(=O)N[C@@H](C)c3ccc(F)cc3F)c(C(F)(F)F)c2n1 [compound 419] | – | – | – | 0.19 | 0.49 | 100.00 | –
C[C@@H](NC(=O)Cc1cc2c(F)c(F)ccc2[nH]c1=O)c1nc(C#N)co1 (single isomer, unassigned) [compound 4006] | – | – | – | – | – | – | Skeletal EC25 ([1]; Y75 value: concentration required to reduce myosin ATP-ase activity by 25%, Rabbit Psoas Prep pCa 25 GEOM_MEAN): 1.11 µM; Atrial EC25 ([2]; Y75 value: concentration required to reduce myosin ATP-ase activity by 25%, Porcine Atria Prep pCa 25 GEOM_MEAN): 0.74 µM; Ventricular EC25 ([3]; Y75 value: concentration required to reduce myosin ATP-ase activity by 25%, Porcine Ventricle Prep pCa 25 GEOM_MEAN): 6.66 µM
Cc1c(C2(C(=O)N[C@@H](C)c3ncc(C#N)cc3F)CC2)c(=O)[nH]c2ccc(F)c(C#N)c12 (single isomer, unassigned) [compound 2524] | 0.13 | 0.16 | 0.31 | – | – | – | –
C[C@H](NC(=O)[C@@H](C)c1cc2c(Br)nccc2[nH]c1=O)c1ccc(F)cc1F (single isomer, unassigned) [compound 344] | – | – | – | 0.23 | 9.52 | 90.74 | –
Cc1nccc2[nH]c(=O)c(C(F)(F)C(=O)N[C@@H](C)c3ncc(C#N)cc3F)c(C)c12 (single isomer, unassigned) [compound 3517] | – | – | – | 0.38 | 1.12 | 2.11 | –
Cc1c(CC(=O)N[C@H](CO)c2ncc(F)cc2F)c(=O)[nH]c2ccnc(C#N)c12 [compound 261] | – | – | – | 26.68 | 100.00 | 100.00 | –
C[C@@H](NC(=O)Cc1c(C#N)c2cc(F)ccc2[nH]c1=O)c1ncc(C#N)cc1F [compound 1094] | 2.26 | 100.00 | 100.00 | – | – | – | –

SMILES | Skeletal EC25 [1, 4] [µM] | Atrial EC25 [2, 5] [µM] | Ventricular EC25 [3, 6] [µM] | Skeletal EC25 [1, 7] [µM] | Atrial EC25 [2, 8] [µM] | Ventricular EC25 [3, 9] [µM] | other results
Cc1c(CC(=O)N[C@H](C)c2ccc(C#N)cn2)c(=O)[nH]c2ccnc(C#N)c12 [compound 157] | – | – | – | 0.62 | 13.10 | 26.29 | –
Cc1cc([C@@H](C)NC(=O)Cc2c(O)c3c(C)c(F)ccc3[nH]c2=O)ncc1F [compound 1116] | 100.00 | 100.00 | 100.00 | – | – | – | –
Cc1ccc2[nH]c(=O)c(CC(=O)N[C@@H](C)c3ncc(C#N)cc3F)cc2n1 [compound 463] | – | – | – | 9.72 | 4.39 | 26.99 | –
C[C@@H](NC(=O)Cc1cc2ccc(F)cc2[nH]c1=O)c1ncc(C#N)cn1 (single isomer, unassigned) [compound 2033] | 24.12 | 100.00 | 100.00 | – | – | – | –
Cc1c(CC(=O)N[C@H](CO)c2ccc(C#N)cc2F)c(=O)[nH]c2cnnc(C#N)c12 [compound 175] | – | – | – | 100.00 | 100.00 | 100.00 | –
Cc1nc([C@H](C)NC(=O)Cc2c(C)c3c(C)c(F)ccc3[nH]c2=O)ncc1C#N (single isomer, unassigned) [compound 4840] | 0.29 | 1.44 | 1.62 | – | – | – | –
Cc1c(C(C)C(=O)N[C@@H](C)c2ccc(F)cc2F)c(=O)[nH]c2ccc(F)cc12 (stereo partly drawn) [compound 127] | 0.17 | 0.19 | 3.12 | – | – | – | –
C[C@H](NC(=O)[C@@H](C)c1c(C(F)(F)F)c2cnccc2[nH]c1=O)c1ccc(F)cc1F (single isomer, unassigned) [compound 426] | – | – | – | 12.74 | 4.84 | 66.84 | –
Cc1nccc2[nH]c(=O)c([C@H](C)C(=O)N[C@@H](C)c3ccc(F)cc3F)cc12 (single isomer, unassigned) [compound 442] | – | – | – | 12.41 | 100.00 | 100.00 | –
C[C@H](NC(=O)Cc1c(C(F)F)c2c(F)c(F)ccc2[nH]c1=O)c1ccc(F)cc1F [compound 107] | 0.02 | 0.03 | 0.09 | – | – | – | –
Cc1nccc2[nH]c(=O)c(CC(=O)N[C@@H](C)c3ccc(S(C)(=O)=O)cc3F)c(C)c12 (single isomer, unassigned) [compound 207] | – | – | – | 1.32 | 100.00 | 100.00 | –
Cc1c(CC(=O)N[C@@H]2COc3cc(C#N)cnc32)c(=O)[nH]c2ccc(F)cc12 [compound 1062] | 9.26 | 3.49 | 6.56 | – | – | – | –
C[C@@H](NC(=O)C1(c2cc3c(F)c(F)ccc3[nH]c2=O)CC1)c1ncc(C#N)cc1F (single isomer, unassigned) [compound 2592] | 3.54 | 0.13 | 0.47 | – | – | – | –
Cc1c(CC(=O)N[C@@H](C)c2ncc(C#N)cc2F)c(=O)[nH]c2ccnc(C(F)(F)F)c12 (single isomer, unassigned) [compound 227] | – | – | – | 0.07 | 0.09 | 0.62 | –
C[C@H](NC(=O)C1(c2cc3c(F)c(F)ccc3[nH]c2=O)CC1)c1cnc(C#N)cn1 (single isomer, unassigned) [compound 4830] | 1.34 | 0.46 | 100.00 | – | – | – | –
